Data from EP1289507B1, “USE OF AN ALDOSTERONE ANTAGONIST FOR THE TREATMENT OR PROPHYLAXIS OF ALDOSTERONE-MEDIATED PATHOGENIC EFFECTS” (priority 2000, dated 2001).
Like-named read-outs stand apart in the source and are kept apart here.

Legend:
[1] = tested on: L-NAME/Angiotensin II/NaCl-treated rats; assay: L-NAME/Angiotensin II/NaCl model of cardiac and renal injury (14 days); format: in vivo, Male Wistar rats
Protocol: Animals. Male Wistar rats (n=44), weighing 200 to 225 grams, and obtained from Charles River Laboratories (Wilmington, MA) were used in the study. All animals were housed in a room lighted 12 hours per day at an ambient temperature of 22±1°C. Animals were allowed one week to recover after arrival and had free access to Purina Lab Chow 5001 (Ralston Purina Inc, St. Louis, MO) and tap water until the initiation of the experiment. After initiation of the protocols, animals in all groups were placed in individual metabolic cages, handled and weighed daily. Twenty-four hour fluid intake, food intake and urine output were measured daily. […] On day 14 of L-NAME treatment, animals were decapitated, trunk blood was collected into chilled tubes containing ethylene diamine tetraacetic acid and the heart and kidneys were removed, blotted dry and immediately weighed. […] Drugs. Eplerenone was supplied by G.D. Searle Pharmaceuticals (St. […] Dexamethasone was dissolved in sesame oil and administered as a single subcutaneous dose (12 μg/kg/day) every day. This dose of dexamethasone has been reported to maintain normal weight gain, glomerular filtration rate, and fasting plasma glucose and insulin levels in adrenalectomized rats. Stanton, B., Giebisch G et al. J. Clin. Invest 1985 75:1317-1326. The experiment was concluded on day 14 of L-NAME treatment. […] (Hou J et al. J. Clin. Invest. 1995 96:2469-2477. […] This lower dose induced lesions in stroke-prone spontaneously hypertensive rats. (Rocha R et al. […] Dexamethasone, aldosterone and L-NAME were purchased from Sigma Chemical Co. (St. Louis, MO). […] Surgical Procedure. […] Bilateral adrenalectomy was performed using a dorsolumbar approach, making separate incisions on each side. […] No post operative deaths occurred. Assays and Analyses. Systolic blood pressure was measured in awake animals by tail-cuff plethysmography using a Natsume KN-210 manometer and tachometer (Peninsula Laboratories Inc, Belmont, CA). Rats were warmed at 37°C for 10 minutes and allowed to rest quietly in a Lucite chamber before measurement of blood pressure. Urinary protein concentration was determined in urine collected on the last day of the experiment using the sulfosalicylic acid turbidity method. […] Plasma aldosterone concentration was determined using a standard radioimmunoassay-kit from Diagnostic Products Co. (Los Angeles, CA). Plasma renin activity ("PRA") was determined by radioimmunoassay detection of generated angiotensin I (DiaSorin Inc., Stillwater, MN). Histology. Hearts were stained with collagen specific dye Sirius red for determination of fibrosis as reported elsewhere. (Young M et al. Am. J. Physiol 1995 269:[…]-[…]). Interstitial collagen was determined using an automated image analyzer. The hearts were also stained with hematoxylin and eosin for light microscopic analysis. Two or three slices of different sections of the heart containing both right and left ventricle were analyzed from each animal. […] Glomerular damage, when present, was characterized as the presence of either segmental or global sclerosis with ischemic or thrombotic changes. Renal arterial and arteriolar damage was categorized as the presence of fibrinoid necrosis of the vascular wall. The renal arterial and arteriolar profiles presenting damage were counted and the number of injured vessels per section was divided by the number of glomeruli in the same section in order to normalize for the amount of tissue examined. […] Statistical analysis. Data were tested for normality using the Kolmogorov-Smimov test. Systolic blood pressure was analyzed using repeated measures-analysis of variance for time and treatment group. One-way analysis of variance was used for normally distributed data with one grouping variable. Post-hoc analysis was performed using Newman Keuls multiple-comparison test. Data that were not normally distributed were analyzed with the Kruskal-Wallis test. Subsequently, selected pairwise comparisons were made using the exact Wilcoxon test. […]

[2] = tested on: Volume Expanded Hypertensive Rats; conditions: averaged for 24 hours after three weeks
[3] = end of experiment, Epl 100 mg/kg/day p.o., ALDO 40 µg/kg/day in adrenalectomized rats

`COC(=O)[C@@H]1CC2=CC(=O)CC[C@]2(C)[C@@]23O[C@@H]2C[C@@]2(C)[C@@H](CC[C@@]24CCC(=O)O4)[C@H]13` [Eplerenone, Pregn-4-ene-7,21-dicarboxylic acid, 9,11-epoxy-17-hydroxy-3-oxo-, γ-lactone, methyl ester, (7α, 11α, 17β)-] was tested, and the “cardiac injury (myocardial necrosis), histology” value ([1]; Figures A-3B, A-4) was “markedly reduced”, the HW/BW ([1]; cardiac hypertrophy index, Epl 100 mg/kg/day p.o., ALDO 40 µg/kg/day in adrenalectomized rats) was 3.46 ± .05 mg/g and the cardiac hypertrophy ([1]; compared to L-NAME/Angiotensin II/NaCl-treated rats) was “significantly reduced cardiac hypertrophy”. The HW [1, 3] was 1144 ± 4 mg, the SBP [1, 3] was 177 ± 8 mmHg and the “urinary protein excretion (24 hour), proteinuria” value ([1]; end of two-week treatment, Figure A-5) was “prevented the development of proteinuria”. For the same molecule, the “extent of hypertension observed at the end of the experiment” value ([1]; eplerenone 100 mg/kg/day p.o., Figure A-1) was “not appreciably influenced”, the “reduction in renal arteriopathy damage compared to L-NAME/AngII/NaCl treated rats” value ([1]; histopathologic scores, P=0.1 (not significant)) was 60% and the HR ([2]; 100 mg/kg s.c.) was 352 ± 4 beats/min. It also gave an SAP ([2]; 100 mg/kg s.c.) of 155 ± 7 mmHg, an HR ([2]; 200 mg/kg s.c.) of 339 ± 4 beats/min and an SAP ([2]; 200 mg/kg s.c.) of 174 ± 5 mmHg.
